15 sequences from patent US20100260791A1, “CHLAMYDIA ANTIGENS” (President and Fellows of Harvard, priority 2007, published 2010) can be followed below.

A value given as a limit tells only on which side of the number the result lay.

In assay [1] the test system is C. trachomatis-specific CD4^+ murine T cells. Briefly: IFN-γ ELISA of C. trachomatis-specific CD4+ murine T cells stimulated with peptide-pulsed macrophages. The class given is cell-based, mouse. The following applies: CT144 peptides (CD4+ Ag); for IFN-γ Produced −fold: fold-increase of IFN-γ production compared to untreated T-lymphocytes (footnote); for IFN-γ Produced ng: mean (± standard deviation) of duplicate samples. From the text: (§1) A library of cells or viruses containing polynucleotides encoding C. trachomatis polypeptides, polypeptide fragments, or fusion proteins may be screened to determine which of the polypeptides, polypeptide fragments, or fusion proteins encoded by the polynucleotides are immunogenic. This may be accomplished by contacting each member of the library with a second cell (e.g., a macrophage or antigen presenting cell) capable of endocytosing the cell of the C. trachomatis library, and displaying portions of the expressed polypeptide of the library on the surface of the second cell (see, e.g., U.S. Pat. No. 6,008,415). The second cell is then contacted with a C. trachomatis-specific T cell (e.g., a C. trachomatis-specific CD4^+ or CD8^+ T cell) from an organism previously infected with C. trachomatis. The second cell may also be fixed (e.g., using paraformaldehyde) prior to contacting with a C. trachomatis-specific T cell. A C. trachomatis-specific T cell capable of binding a presented portion of the C. trachomatis protein, will result in secretion of cytokines. Cytokine secretion (e.g., secretion of IFN-γ, IL-2, or TNF) may be assayed for as known in the art, for example, using an ELISA assay.
(§2) In particular, murine H2^b bone marrow-derived macrophages (BMMs) were seeded at a density of 1×10^5 cells/well in 96-well plates. Fourteen to sixteen hours later, an aliquot of a frozen C. trachomatis library was thawed. The media was aspirated from the BMMs and replaced with a library aliquot and 60 μL of fresh RP-10 media. After 1 hour at 37° C., the BMMs were washed with PBS, 100 μL of RP-10 media added, and the cells incubated an additional hour at 37° C. The BMMs were then fixed with 1% paraformaldehyde for 15 minutes and washed extensively with PBS. […] T cells (either C. trachomatis-specific CD4^+ or CD8^+ murine T cells; 1×10^5) were added to each well in 200 μL of RP-10 media. Plates were incubated for 18-24 hours at 37° C. and the amount of IFN-γ in the supernatant of each well determined through the use of an IFN-γ ELISA assay (Endogen).
(§3) Another way to identify an antigenic peptide is to pulse the polypeptide, polypeptide fragment, or fusion protein onto macrophages and screen for their ability to activate C. trachomatis-specific CD4^+ or CD8^+ murine T cells (as described above). Peptides used in such assays can be synthesized using methods known in the art. A polypeptide, polypeptide fragment, or fusion protein that is capable of activating the C. trachomatis-specific CD4^+ or CD8^+ murine T cells is deemed immunogenic.
Activated CD4^+ murine T cells for use in the identification of immunogenic C. trachomatis polypeptides, polypeptide fragments, and fusion proteins may be obtained using methods known in the art. Splenocytes from mice were isolated 21 days after infection with C. trachomatis serovar L2 and cultured with irradiated (2,000 rad) bone marrow-derived dendritic cells, UV-inactivated C. trachomatis serovar L2, and naïve syngeneic splenocytes in RP-10 (RPMI medium 1640 supplemented with 10% fetal calf serum, L-glutamine, HEPES, 50 μM 2-β-mercaptoethanol, 50 units/ml penicillin, and 50 μg/ml streptomycin) with a-methyl mannoside and 5% supernatant from Con A-stimulated rat spleen cells. CD8^+ T cells were depleted from the culture by using Dynabeads Mouse CD8 (Invitrogen, Carlsbad, Calif.). The CD4^+ T cells were restimulated every 7 days with C. trachomatis-pulsed bone marrow-derived dendritic cells. Once a C. trachomatis-specific CD4^+ cell line was established, a CD4^+ T cell clone was isolated by limiting dilution.

The subject of assay [2] is C. trachomatis-specific CD8^+ murine T cells. Briefly: IFN-γ ELISA of C. trachomatis-specific CD8+ murine T cells stimulated with peptide-pulsed macrophages. The class given is cell-based, mouse. Conditions: CT242 and CT812 peptides (CD8+ Ag); for IFN-γ Produced −fold: fold-increase of IFN-γ production compared to untreated T-lymphocytes (footnote); for IFN-γ Produced ng: mean (± standard deviation) of duplicate samples.
Description: as §1, §2, §3
Pools of activated CD8^+ murine T cells for use in the identification of immunogenic C. trachomatis polypeptides, polypeptide fragments, and fusion proteins may be obtained using methods known in the art. Typically, in screening for antigens to pathogenic organisms, CD8^+ T cells are prepared from a mammal previously infected with the pathogenic organism. This preparation contains CD8^+ T cells specific for antigens from the pathogen.
C. trachomatis-specific CD8^+ T cells were harvested from mice as follows. A C57BL/6 mouse was injected intraperitoneally with 10^7 infection-forming units of C. trachomatis. Fourteen days later the mouse was euthanized and the spleen was harvested. The spleen was mashed through a 70 μm screen to create a single cell solution of splenocytes. The CD8^+ T cells were isolated from the splenocytes using anti-CD8 antibodies bound to MACS™ magnetic beads and separation protocols standard in the art (see, for e.g., MACS™ technology available from Miltenyi Biotec Inc., Auburn, Calif.). The isolated CD8^+ cells were added to macrophages of the same haplotype (H2^b), which were infected with C. trachomatis 18 hours prior in a 24-well dish. Irradiated splenocytes from a naïve mouse (C57BL/6) were added as feeder cells in media containing IL-2. The cells were incubated for 10 days during which the C. trachomatis-specific CD8^+ T cells were stimulated by the infected macrophages and replicated. […]
In general terms: An ELISA detects its analyte on a solid surface through an enzyme-linked reagent.

Take “AQGKLIVTNPKSDISFGGRV (listed as Chlamydia trachomatis) [amino acids 67-86 of the CT144 polypeptide]”: in assay [1], the “IFN-γ Produced −fold” value is 925 fold and the “IFN-γ Produced ng” value is recorded as 37.0 (±1.8) ng.

Turning to “QSVNELVYV [CT812 peptide tested with CD8+ T cells]”, in assay [2], the “IFN-γ Produced −fold” value was 0.3 fold and the “IFN-γ Produced ng” value is 0.01 (±0.01) ng.

On to “SNLKRMQKI [CT242 peptide tested with CD8+ T cells]”, for which, in assay [2], the “IFN-γ Produced −fold” value is listed as 10 fold and the “IFN-γ Produced ng” value is reported as 0.40 (±0.07) ng.

As for “LNQSNLKRM (listed as Chlamydia trachomatis) [amino acids 112-120 of the CT242 polypeptide]”, in assay [2], the “IFN-γ Produced −fold” value is reported as 160 fold and the “IFN-γ Produced ng” value was 6.5 (±2.4) ng.

“KSDISFGGRVNLADNTVNYS (listed as Chlamydia trachomatis) [amino acids 77-96 of the CT144 polypeptide]”: in assay [1], the “IFN-γ Produced −fold” value was determined as 40 fold and the “IFN-γ Produced ng” value was 1.6 (±0.4) ng.

In the case of “SQAEGQYRL [CT812 peptide tested with CD8+ T cells]”, in assay [2], the “IFN-γ Produced −fold” value is on record as 0.8 fold and the “IFN-γ Produced ng” value is listed as 0.03 (±0.3) ng.

“YQILNQSNL (listed as Chlamydia trachomatis) [amino acids 109-117 of the CT242 polypeptide]”: in assay [2], the “IFN-γ Produced −fold” value is on record as >5,750 fold and the “IFN-γ Produced ng” value was greater than 230 ng.

“FTSSNLDSP [CT812 peptide tested with CD8+ T cells]”: in assay [2], the “IFN-γ Produced −fold” value turned out to be 1.0 fold and the “IFN-γ Produced ng” value is listed as 0.04 (±0.01) ng.

“AALYSTEDL [CT812 peptide tested with CD8+ T cells]”: in assay [2], the “IFN-γ Produced −fold” value is recorded as 0.5 fold and the “IFN-γ Produced ng” value is recorded as 0.02 (±0.02) ng.

As for “FSVTNPVVF (listed as Chlamydia trachomatis) [amino acids 103-111 of the CT812 polypeptide]”, in assay [2], the “IFN-γ Produced −fold” value came to 65 fold and the “IFN-γ Produced ng” value is given as 2.6 (±0.3) ng.

With “GQSVNELVY [CT812 peptide tested with CD8+ T cells]”, in assay [2], the “IFN-γ Produced −fold” value worked out at 0.8 fold and the “IFN-γ Produced ng” value was 0.03 (±0.02) ng.

As for “FQEKDADTL [CT812 peptide tested with CD8+ T cells]”, in assay [2], the “IFN-γ Produced −fold” value stood at 2.0 fold and the “IFN-γ Produced ng” value is recorded as 0.09 (±0.03) ng.

For the sequence “NVTQDLTSSTAKLECTQDLI [CT144 peptide tested with CD4+ T cells]”, in assay [1], the “IFN-γ Produced −fold” value was 35 fold and the “IFN-γ Produced ng” value was 1.4 (±0.3) ng.

With “AKLECTQDLIAQGKLIVTNP [CT144 peptide tested with CD4+ T cells]”, in assay [1], the “IFN-γ Produced −fold” value stood at 35 fold and the “IFN-γ Produced ng” value is listed as 1.4 (±0.3) ng.

For “LEFASCSSL [CT812 peptide tested with CD8+ T cells]”, in assay [2], the “IFN-γ Produced −fold” value was 1.5 fold and the “IFN-γ Produced ng” value is listed as 0.06 (±0.01) ng.
